From patent US6593365B1, “Diflunisal esters and related compounds” (The University of Queensland, priority 1997, dated 2003)
Read-outs that look alike come from different tables or passages of the source. Marks after values point to notes of the source that are not given here.

Assays:
[1] = Intrinsic (maximum) solubility in water at pH 1.5; assay type: physicochemical; conditions: water at pH 1.5, 25 1° C.; U = Undetectable
Description: The pH conditions were chosen to ensure that the solubility of the unionised species was estimated. […] Lea & Febiger/Philadelphia. […] […] The solvent (9.9 mL) was then added to the test tube. […] The test tube was sonicated for 15 minutes and centrifuged for 10 minutes (3000 g at 25° C.). An aliquot was filtered (Minisart 0.45 μm filter, Satorius) and diluted with HPLC mobile phase, then assayed. The tube was stored carefully in a 25° C. water bath after sampling and the remaining suspension was again sonicated and the process repeated 7 times at four hourly intervals. In these assays, standard curves were prepared by directly dissolving the esters in mobile phase. Concentrations for standard curves ranged from 1-50 μg/mL for all compounds. Furthermore, a manual injector (Waters Model U6K) was used (20 μL sample loop) which ensured that 20 μL was consistently injected onto the column and precluded the need for an internal standard.

[2] = Maximum solubility in 2% BSA Krebs-Henseleit buffer (pH 7.4); assay type: physicochemical; conditions: 25 1° C.
Description: The intrinsic solubility of diflunisal esters is extremely low (TABLE 2). The more lipophilic the analogue, the higher the solubility of solute under these conditions.

[3] = tested on: human platelet rich plasma; assay: Platelet aggregation induced by arachidonic acid; assay type: cell-based; conditions: compound 600 µM, 37° C., arachidonic acid 200 µM
Description: Platelet aggregation studies were carried out using a single channel Lumiaggregometer (Chrono-Log Company, Haverton, Pa.) at 37° C. using human platelet-rich and platelet-poor plasma. Platelet-rich plasma (PRP) with a platelet concentration of […] (measured with a Coulter counter) was prepared by centrifuging 3.8% citrated […] (1:9) at 1,500 rpm using a (Beckman) benchtop centrifuge at room temperature for 15 minutes. Platelet-poor plasma (PPP) was prepared by further centrifuging residual blood from platelet-rich plasma at 3,000 rpm for 30 minutes. Platelet-poor plasma was also confirmed b y Coulter counting for platelet content.
Platelet aggregation studies were preceded by pipetting 0.4 mL platelet-rich plasma into a stirred aggregometer tube and calibrate to 90% of recorder. Platelet-poor plasma was set to calibrate at 10% of recorder. Platelet aggregation was initiated by the addition of a arachidonic acid (Sigma) or ADP (Sigma).
10 mM solutions of each compound (TABLE 6) were prepared in 1 mL of normal saline solution (containing 4% BSA) before use. An aliquot (400 μL) of platelet-rich plasma was pipetted into a stirred aggregometer tube at 37° C. and 30 μL of test sample added simultaneously. This mixture was preincubated for varying period (3 to 45 minutes), then arachidonic acid (AA) was added (final conc.=200 μM) to initiate platelet aggregation. If no aggregation occurred, 20 μM ADP was added to confirm the vitality of the platelets (if the platelets are vital, ADP will induce this AA-test sample-plasma mixture to aggregate). This procedure is necessary to investigate whether the non-aggregation phenomenon is due to drug inhibition or simply due to inviable platelets (unable to respond to AA). The degree of aggregation was measure by calculating the area under the turbidimetric response curve (AUC).

[4] = In vitro non-enzymatic hydrolysis in Krebs-Henseleit buffer; assay type: physicochemical; conditions: pH 7.4, 25° C., n=5
Description: These experiments were carried out both in Krebs-Henseleit buffer containing either no protein or 2% w/v BSA (bovine serum albumin, fraction V, Sigma) at pH 7.4 and 25±1° C.
Solutions of the derivatives in Krebs buffer (10 mL) was prepared in siliconised glass tubes. Each solution was sonicated for 5 minutes and centrifuged for 5 minutes (3000 g) at 25° C. to ensure maximum dissolution and to sediment any undissolved precipitate. About 7.5 mL of the supernatant was then transferred to a clean siliconised test tube and a 100 μL aliquot was removed and assayed. […] The rate of non-enzymatic hydrolysis (k) for each derivative was then estimated using the following equation: […]
where C1 is the concentration of the ester at any time (t), and C0 is the concentration of the ester at time zero. The half-life (t½) was determined using the formula: […]

[5] = tested on: OH. generated from Fenton's reaction; assay: Luminol-dependent chemiluminescence induced by Fenton's reagent; assay type: biochemical; set-up: unit of the concentration uncertain; conditions: F: CL induced by Fenton's reagent, n=3
Description: CL was measured with a luminometer (Model 1250; LKB Wallac, Finland) and recorded in millivolts (Cheung et al., 1984, supra).
Fenton's reagent (FeSO4 and H2O2) was used as a standard reaction mixture for the generation of OH. (Lai and Piette, 1979, Tetrahedron Lett. 775-778):
Fe^+++H2O2→Fe^++++OH.+OH (1)
The initial reaction mixture consisted of 20 μL of 3.8 mM FeSO4.7H2O, 20 μL of 5 mg/mL luminol (Sigma), and 2 mL of 1 mM phosphate buffer in a 3 mL polystyrene cuvette. Twenty microlitres of 320 mM H2O2 was added to initiate the Fenton's reaction.
A known concentration of the ethanolic (≲1%) aspirin analogue or diflunisal ester's stock solution was added to the 1 mM phosphate buffer to prepare solutions with a final concentration of 50 μM, 250 μM or 500 μM. Twenty microlitres of these test samples was added onto the cuvette which contained the initial reaction mixture. H2O2 was added to induce CL reaction. The luminol-dependent CL response was recorded in mV by a potentiometric recorder.
(§1) CL measurements were always done in triplicate and Student's t-test used to assess the statistical significance of the difference between measurements.

[6] = tested on: superoxide generated from xanthine oxidase plus xanthine reaction; assay: Xanthine oxidase plus xanthine-induced chemiluminescence; assay type: biochemical; set-up: dose or concentration left out as unconfirmed; conditions: X: CL induced by xanthine oxidase plus xanthine
Description: To clarify the role of aspirin analogues and diflunisal esters in free radicals scavenging, the Fenton's reagent was replaced by an artificial superoxide generating system in the CL inhibition studies. This cell-free system consisted of 100 μg/mL of xanthine oxidase (Sigma) plus 0.5 μM xanthine (Sigma) (Rosen and Klebanoff, 1976, J Clin Invest 58 50-60; Cheson et al., 1976, J Clin Invest 58 789-796).
as §1

[7] = tested on: in-situ perfused rat liver; assay: In-situ rat liver perfusions, hepatic extraction (Example 4); assay type: in vitro ADME; conditions: protein-free Krebs-Henseleit buffer as perfusate; hepatic extraction=1- hepatic availability (F)
Description: The hepatic availability (F) for the O-acyl esters of SA and DF was determined using a once through in-situ perfused rat liver preparation (Mellick and Roberts, 1996, J Pharm Pharmacol 48:738-743). Liver was perfused with protein-free Krebs-Henseleit buffer at 30 mL/min for aspirin analogues and with Krebs-Henseleit buffer containing 2% BSA for diflunisal esters studies. Since the solubilities of the diflunisal esters in protein-free media were very low, 2% BSA were used to help to solubilize these compounds. Briefly, 50 μL of a saturated solution of the particular O-acyl SA or DF in Krebs-Henseleit buffer was injected as a bolus into the portal vein cannula. Perfusate outflow samples have collected via a fraction collector over 3 min. 100 μL of these samples was assayed by HPLC to determine the residual concentration of presented ester and the quantity of phenolic metabolite (SA or DF) collected from the perfused liver. The HPLC assay was a modification of the method used by Owen et al. (1987, J Chrom B Biomed Appl 416 293-302) and Rumble et al. (1981, J Chrom 225 252-260).
The hepatic availability (F) was calculated from the ratio of the area under the first moment curve, i.e., outflow concentration time-time profile to the area under the curve for the salicylate phenolic esters, with the assistance of the Moments Calculator 2.2 program for Macintosh computer developed by Robert Purves (1994, J Pharm Sci 83:202-205).

[8] = tested on: ischaemic/reperfusion rat livers; assay: Ischaemic/reperfusion injury in rat livers (LDH release, bile production); set-up: species or system Female Sprague-Dawley rats; conditions: Rattus norvegicus
Description: Female Sprague-Dawley rats (220-250 g) were anaesthetised by interperitoneal injection of pentobarbital sodium (60 mg/kg, Boehringer Ingelhein). […] The bile duct was cannulated with a polyethylene tubing (PE-10, I.D. 0.28 mm; Clay Adams, New Jersey) and bile was collected into pre-weighed microcentrifuge tubes at 70 min intervals (in the middle of experiment and the end of experiment). The portal vein was then cannulated using a 16 G intravenous catheter and the liver was perfused via this cannula with 2% BSA Krebs-Henseleit bicarbonate buffer (pH 7.4) and oxygenated using a membrane oxygenator comprising of silastic tubing and ventilated with carbogen (95% O2/5% CO2). The perfusion system used was recirculating and employed a peristaltic pump (Cole-Parmer, Illinois).
Following a 10 min pre-ischaemia perfusion, the perfusion flow was stopped for 30 min at 37° C. with the liver being kept moist. At the end of this ischaemic phase, a known concentration of the aspirin analogue or diflunisal ester's solution (in 2% BSA Krebs-Henseleit buffer) was added into the perfusate prior to the perfusion being resumed for another 100 min. Outflow fractions were collected up to 140 min. A biochemistry autoanalyzer (Hitachi, model 747; Tokyo, Japan) was employed to determine the level of enzyme (LDH) release.
The degree of ischaemic/reperfusion injury was measured by calculating the area under the LDH release ([…]) versus time curve (AUC). […] The efficacy of each compound is expressed in terms of ED50 which represents the molar dose for 50% reduction of LDH release compared to the control. The comparison of bile production between the first stage of experiment (the first 70 min) and the second stage of experiment (the last 70 min) is also used as index of liver function during an experiment.

Maximum solubility [1] [mM]	Maximum solubility [2] [mM]	Maximum solubility ([2]; mean standard deviation (n=3)) [mg/mL]	Hydrolysis rate constant (k) ([4]; Krebs-Henseleit buffer 0% BSA, U = Undetectable) [hour^1]	Hydrolysis rate constant (k) ([4]; Krebs-Henseleit buffer 2% BSA) [hour^1]	CL inhibition (%) [6] [%]	Hepatic extraction [7]	SMILES	Platelet Aggregation (% of control) ([3]; preincubation 3 minutes)	Platelet Aggregation (% of control) ([3]; preincubation 5 minutes)	Platelet Aggregation (% of control) ([3]; preincubation 8 minutes)	Platelet Aggregation (% of control) ([3]; preincubation 10 minutes)	Platelet Aggregation (% of control) ([3]; preincubation 12 minutes)	Platelet Aggregation (% of control) ([3]; preincubation 15 minutes)	Platelet Aggregation (% of control) ([3]; preincubation 20 minutes)	Platelet Aggregation (% of control) ([3]; preincubation 25 minutes)	Platelet Aggregation (% of control) ([3]; preincubation 45 minutes)	CL inhibition (%) ([5]; 2.5 (unit uncertain) compound)	CL inhibition (%) ([5]; 5 (unit uncertain) compound)	EC50 ([8]; C is the ED50 molar dose, read-out: log 1/C (converted)) [µM]	EC50 ([8]; molar dose for 50% reduction of LDH release compared to control, 30 min ischaemia, 100 min reperfusion, read-out: ED50 (the source's name)) [µM]
0.01	10.29	3.15 ± 0.02					CCC(=O)Oc1ccc(-c2ccc(F)cc2F)cc1C(=O)O [Compound C3D, n-propionyldiflunisal]	96.5 ± 3.1 % of control	89.3 ± 0.4 % of control	67.3 ± 0.1 % of control	49.7 ± 1.1 % of control	19.3 ± 0.5 % of control	0 % of control	0 % of control	0 % of control	0 % of control				
6.3			0.0147 ± 0.0025	0.0102 ± 0.0031			CCC(=O)Oc1ccccc1C(=O)O [Compound C3SA, n-propionylsalicylic acid]	0 % of control	0 % of control	0 % of control	0 % of control	0 % of control	0 % of control	0 % of control	0 % of control	0 % of control				
					0.2 ± 0.0	0.05^c	O=C(O)c1ccccc1O [SA, 2-hydroxybenzoic acid, reference compound]										52.9 ± 2.1	99.0 ± 1.0	72.4	72.6
